Consider 31 molecules from ChEMBL document CHEMBL1134420, “Substituent effects within the DNA binding subunit of CBI analogues of the duocarmycins and CC-1065” (Bioorg Med Chem Lett, 2001).

By pIC50 is commonly meant −log10 of the IC50, conventionally taken in molar units. A higher pIC50 goes with a small IC50.

pIC50: −log10 of the molar value.

One test has as its system L1210. Kind of test: Cytotoxic activity against L1210 leukemia cells. Format: functional, cell-based, Mus musculus. As to conditions: Mus musculus, L1210.
For `CC#Cc1ccc2[nH]c(C(=O)N3C[C@H]4C[C@@]45C3=CC(=O)c3ccccc35)cc2c1`, the pIC50 is 9.00.
Molecule `CC(=O)c1cccc2cc(C(=O)N3C[C@H]4C[C@@]45C3=CC(=O)c3ccccc35)[nH]c12` gave a negative logarithm of the IC50 (pIC50) of 9.52.
`CCCOc1ccc2[nH]c(C(=O)N3C[C@H]4C[C@@]45C3=CC(=O)c3ccccc35)cc2c1` had a negative logarithm of the IC50 (pIC50) of 10.40.
Same read-out and setting: as for `O=C1C=C2N(C(=O)c3cc4cc(Cl)ccc4[nH]3)C[C@H]3C[C@@]23c2ccccc21`, the figure is 9.40; as for `CCCC(=O)Nc1ccc2[nH]c(C(=O)N3C[C@H]4C[C@@]45C3=CC(=O)c3ccccc35)cc2c1`, 10.52.
Still for that read-out and setting: as for `COc1cccc2cc(C(=O)N3C[C@H]4C[C@@]45C3=CC(=O)c3ccccc35)[nH]c12`, the figure is 9.52; as for `CC(=O)c1ccc2[nH]c(C(=O)N3C[C@H]4C[C@@]45C3=CC(=O)c3ccccc35)cc2c1`, 11.70.
On the same count and under the same terms, as for `CCC(=O)Nc1ccc2[nH]c(C(=O)N3C[C@H]4C[C@@]45C3=CC(=O)c3ccccc35)cc2c1`, the figure is 10.52.
`CCCCOc1ccc2[nH]c(C(=O)N3C[C@H]4C[C@@]45C3=CC(=O)c3ccccc35)cc2c1` gave a negative-log IC50 (pIC50) of 10.30.
Molecule `[N-]=[N+]=Nc1ccc2[nH]c(C(=O)N3C[C@H]4C[C@@]45C3=CC(=O)c3ccccc35)cc2c1` showed a pIC50 of 9.52.
For `CC(=O)Nc1ccc2[nH]c(C(=O)N3C[C@H]4C[C@@]45C3=CC(=O)c3ccccc35)cc2c1`, the pIC50 was 10.52.
Still for that read-out and setting: as for `COc1ccc2[nH]c(C(=O)N3C[C@H]4C[C@@]45C3=CC(=O)c3ccccc35)cc2c1`, the figure is 10.30; as for `Cc1ccc2[nH]c(C(=O)N3C[C@H]4C[C@@]45C3=CC(=O)c3ccccc35)cc2c1`, 8.70; as for `N#Cc1cccc2cc(C(=O)N3C[C@H]4C[C@@]45C3=CC(=O)c3ccccc35)[nH]c12`, 9.52.
`O=C1C=C2N(C(=O)c3cc4cc(Br)ccc4[nH]3)C[C@H]3C[C@@]23c2ccccc21` had a negative-log IC50 (pIC50) of 9.30.
The same measure, in the same setting: as for `CCOc1ccc2[nH]c(C(=O)N3C[C@H]4C[C@@]45C3=CC(=O)c3ccccc35)cc2c1`, the figure is 11.00; as for `C#Cc1ccc2[nH]c(C(=O)N3C[C@H]4C[C@@]45C3=CC(=O)c3ccccc35)cc2c1`, 9.52.
`O=C1C=C2N(C(=O)c3cc4cc(OCc5ccccc5)ccc4[nH]3)C[C@H]3C[C@@]23c2ccccc21`: the pIC50 was 10.30.
`CCCC(=O)c1ccc2[nH]c(C(=O)N3C[C@H]4C[C@@]45C3=CC(=O)c3ccccc35)cc2c1` gave a negative-log IC50 (pIC50) of 10.70.
In turn, `CC(=O)N(C)c1ccc2[nH]c(C(=O)N3C[C@H]4C[C@@]45C3=CC(=O)c3ccccc35)cc2c1` showed a negative logarithm of the IC50 (pIC50) of 10.52.
`CCC(=O)c1ccc2[nH]c(C(=O)N3C[C@H]4C[C@@]45C3=CC(=O)c3ccccc35)cc2c1` gave a negative-log IC50 (pIC50) of 11.52. Against the preceding molecule, the pIC50 is 1.00 log units higher.
`N#Cc1ccc2[nH]c(C(=O)N3C[C@H]4C[C@@]45C3=CC(=O)c3ccccc35)cc2c1` showed a pIC50 of 10.52.
The same measure, in the same setting: as for `O=C1C=C2N(C(=O)c3cc4ccccc4[nH]3)C[C@H]3C[C@@]23c2ccccc21`, the figure is 8.57.

Still in this test, the particulars now being: l1210.
The molecule `O=C1C=C2N(C(=O)c3cc4cc5ccccc5cc4[nH]3)CC3CC23c2ccccc21` (stereo in doubt; 7) gave a negative logarithm of the IC50 (pIC50) of 6.40.
Regarding `O=C1C=C2N(C(=O)c3cc4cc5ccccc5cc4[nH]3)CC3CC23c2ccccc21` (stereo in doubt; 6), the negative-log IC50 (pIC50) was 9.30.
The same measure, in the same setting: as for `NC(=O)N1CCc2c1ccc1[nH]c(C(=O)N3CC4CC45C3=CC(=O)c3ccccc35)cc21` (stereo in doubt; (+)), the figure is 11.30.
Same read-out and setting: as for `O=C1C=C2N(C(=O)c3cc4c(ccc5ccccc54)[nH]3)CC3CC23c2ccccc21` (stereo in doubt; 5), the figure is 6.52; as for `NC(=O)N1CCc2c1ccc1[nH]c(C(=O)N3CC4CC45C3=CC(=O)c3ccccc35)cc21` (stereo in doubt; (-)), at most 9.42; as for `O=C1C=C2N(C(=O)c3cc4c(ccc5ccccc54)[nH]3)CC3CC23c2ccccc21` (stereo in doubt; 4), 8.30.
`COc1cc2cc(C(=O)N3CC4CC45C3=CC(=O)c3ccccc35)[nH]c2c(OC)c1OC` (single isomer, unassigned; (+)) had a pIC50 of 10.52.
In turn, `COc1cc2cc(C(=O)N3CC4CC45C3=CC(=O)c3ccccc35)[nH]c2c(OC)c1OC` (stereo in doubt) showed a negative logarithm of the IC50 (pIC50) of 8.70. This pIC50 is 1.82 log units lower than that of the molecule before.
